Reference: the supplement of paper PMC7017272
± gives the standard deviation of the averaged measurements. Values belong to the compound of their own block, whether it stands above or below them.

How the values were obtained:
Details in all cases: treatment time: 3 days
[1] = tested on: UT-SCC-24A; assay: drug sensitivity score (DSS); higher = more sensitive
Description: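 HNSCC cell lines (500 cells/well, 384-well) were cultured on plastic, on top of (2D) or embedded (3D) in Matrigel or human leiomyoma matrix Myogel (500 ug/mL; Myogel 3D mixed with rat collagen I). Cells were treated for 3 days with 5 ten-fold concentrations of each drug, and viability was read by CellTiter-Glo. Suffixes _1/_2/_3 on drug names are replicates.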

[2] = tested on: UT-SCC-106A; assay: maximal % inhibition of viability relative to DMSO; higher = stronger effect
Procedure, shortened: (§1)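 The FIMM pipeline was used to fit percent-inhibition dose–response curves, giving IC50, maximal inhibition and drug sensitivity score. Input data were CellTiter-Glo 2.0 luminescence readings, normalised to vehicle (0.1% DMSO) and cell-killing control wells, from HPV-negative HNSCC cell lines seeded at 500 cells/well in 384-well plates. Cells sat on plastic, on Matrigel or Myogel coatings (500 µg/mL), or within Matrigel or Myogel plus rat collagen I, and received compounds at five 10-fold concentrations for 3 days.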

[3] = tested on: UT-SCC-14; assay: as above
Procedure, shortened: as §1

[4] = tested on: UT-SCC-24B; assay: as above
Procedure, shortened: as §1

[5] = tested on: UT-SCC-28; assay: as above
Procedure, shortened: as §1

[6] = tested on: UT-SCC-40; assay: as above
Procedure, shortened: as §1

[7] = tested on: UT-SCC-42A; assay: as above
Procedure, shortened: as §1

[8] = tested on: UT-SCC-42B; assay: as above
Procedure, shortened: as §1

[9] = tested on: UT-SCC-44; assay: as above
Procedure, shortened: as §1

[10] = tested on: UT-SCC-73; assay: as above
Procedure, shortened: as §1

[11] = tested on: UT-SCC-81; assay: as above
Procedure, shortened: as §1

[12] = tested on: UT-SCC-8; assay: as above
Procedure, shortened: as §1

[13] = tested on: UT-SCC-106A; assay: relative IC50 (midpoint of the fitted curve; maximal inhibition may be below 50%); higher = less potent
Procedure, shortened: as §1

[14] = tested on: UT-SCC-14; assay: as above
Procedure, shortened: as §1

[15] = tested on: UT-SCC-24B; assay: as above
Procedure, shortened: as §1

[16] = tested on: UT-SCC-40; assay: as above
Procedure, shortened: as §1

[17] = tested on: UT-SCC-42B; assay: as above
Procedure, shortened: as §1

[18] = tested on: UT-SCC-44; assay: as above
Procedure, shortened: as §1

[19] = tested on: UT-SCC-73; assay: as above
Procedure, shortened: as §1

[20] = tested on: UT-SCC-8; assay: as above
Procedure, shortened: as §1

[21] = culture condition: embedded in Matrigel
[22] = culture condition: embedded in Myogel + collagen I
[23] = culture condition: on top of Matrigel
[24] = culture condition: on top of Myogel
[25] = culture condition: plastic 2D (no matrix)

relative IC50 [13, 21]: 0.942 nM | relative IC50 [13, 23]: 1.25 nM | relative IC50 [13, 25]: 1.5 nM | relative IC50 [14, 21]: 3.5 nM | relative IC50 [14, 23]: 7.96 nM | relative IC50 [14, 25]: 17.5 nM | relative IC50 [15, 21]: 9.83 nM | relative IC50 [15, 22]: 9.92 nM | relative IC50 [15, 23]: 11.6 nM | relative IC50 [15, 24]: 22.7 nM | relative IC50 [15, 25]: 7.62 nM | relative IC50 [16, 23]: 3.55 nM | relative IC50 [16, 24]: 4.8 nM | relative IC50 [17, 21]: 1.71 nM | relative IC50 [17, 23]: 5.67 nM | relative IC50 [17, 24]: 12.5 nM | relative IC50 [18, 21]: 1.55 nM | relative IC50 [18, 23]: 1.52 nM | relative IC50 [18, 25]: 1.46 nM | relative IC50 [19, 21]: 2.42 nM | relative IC50 [19, 24]: 3.31 nM | relative IC50 [20, 21]: 11.3 nM
SMILES: CC(=O)Nc1cccc(-n2c(=O)n(C3CC3)c(=O)c3c(Nc4ccc(I)cc4F)n(C)c(=O)c(C)c32)c1 [Trametinib]
drug sensitivity score [1, 21]: 20.2 ± 1.9 DSS | drug sensitivity score [1, 22]: 8.77 ± 2.7 DSS | drug sensitivity score [1, 23]: 18.9 ± 1.5 DSS | drug sensitivity score [1, 24]: 3.8 ± 1.6 DSS | drug sensitivity score [1, 25]: 18.2 ± 2.1 DSS | maximal % inhibition of viability [2, 21]: 51.5 ± 3.2% | maximal % inhibition of viability [2, 22]: 15.1 ± 2.8% | maximal % inhibition of viability [2, 23]: 61.8 ± 3.4% | maximal % inhibition of viability [2, 24]: 23.2 ± 8.1% | maximal % inhibition of viability [2, 25]: 63.5 ± 1.5% | maximal % inhibition of viability [3, 21]: 43.2 ± 5.3% | maximal % inhibition of viability [3, 22]: 31 ± 10% | maximal % inhibition of viability [3, 23]: 37.1 ± 8.6% | maximal % inhibition of viability [3, 24]: 22.9 ± 3% | maximal % inhibition of viability [3, 25]: 24 ± 8.8% | maximal % inhibition of viability [4, 21]: 67.1 ± 3.1% | maximal % inhibition of viability [4, 22]: 66.5 ± 3.8% | maximal % inhibition of viability [4, 23]: 67.53 ± 0.29% | maximal % inhibition of viability [4, 24]: 59.1 ± 4.8% | maximal % inhibition of viability [4, 25]: 78.8 ± 1.7% | maximal % inhibition of viability [5, 21]: 36.7 ± 7.8% | maximal % inhibition of viability [5, 22]: 29.7 ± 26% | maximal % inhibition of viability [5, 23]: 35.1 ± 7.7% | maximal % inhibition of viability [5, 25]: 21.1 ± 4.4% | maximal % inhibition of viability [6, 21]: 78.07 ± 0.4% | maximal % inhibition of viability [6, 22]: 61.7 ± 4.8% | maximal % inhibition of viability [6, 23]: 71.7 ± 2.8% | maximal % inhibition of viability [6, 24]: 51.9 ± 1.5% | maximal % inhibition of viability [6, 25]: 52.2 ± 7.5% | maximal % inhibition of viability [7, 21]: 45.4 ± 0.67% | maximal % inhibition of viability [7, 22]: 22.1 ± 5.4% | maximal % inhibition of viability [7, 23]: 50.3 ± 4.1% | maximal % inhibition of viability [7, 24]: 29.4 ± 6.9% | maximal % inhibition of viability [7, 25]: 34.7 ± 3.8% | maximal % inhibition of viability [8, 21]: 67.8 ± 4.4% | maximal % inhibition of viability [8, 23]: 52.2 ± 7.1% | maximal % inhibition of viability [8, 24]: 20.8 ± 7.8% | maximal % inhibition of viability [8, 25]: 28.8 ± 8% | maximal % inhibition of viability [9, 21]: 66.8 ± 1.4% | maximal % inhibition of viability [9, 22]: 23 ± 2.4% | maximal % inhibition of viability [9, 23]: 46.1 ± 8.3% | maximal % inhibition of viability [9, 24]: 28.4 ± 11% | maximal % inhibition of viability [9, 25]: 41.1 ± 9% | maximal % inhibition of viability [10, 21]: 81.2 ± 1.7% | maximal % inhibition of viability [10, 22]: 62.8 ± 12% | maximal % inhibition of viability [10, 23]: 76.9 ± 0.9% | maximal % inhibition of viability [10, 24]: 63.3 ± 3.6% | maximal % inhibition of viability [10, 25]: 70.53 ± 0.25% | maximal % inhibition of viability [11, 21]: 84.9 ± 2.4% | maximal % inhibition of viability [11, 22]: 24.5 ± 2.6% | maximal % inhibition of viability [11, 23]: 78.6 ± 2.9% | maximal % inhibition of viability [11, 24]: 27.8 ± 11% | maximal % inhibition of viability [11, 25]: 44.1 ± 8.9% | maximal % inhibition of viability [12, 21]: 61.3 ± 18% | maximal % inhibition of viability [12, 22]: 24.5 ± 29% | maximal % inhibition of viability [12, 23]: 47.3 ± 24% | maximal % inhibition of viability [12, 24]: 41.1 ± 19% | maximal % inhibition of viability [12, 25]: 43 ± 23%

relative IC50 [13, 21]: 6.54 nM | relative IC50 [13, 24]: 8.68 nM | relative IC50 [14, 21]: 0.761 nM | relative IC50 [14, 22]: 0.711 nM | relative IC50 [14, 24]: 0.632 nM | relative IC50 [14, 25]: 0.876 nM | relative IC50 [15, 22]: 1.48 nM | relative IC50 [16, 21]: 2.37 nM | relative IC50 [16, 24]: 1.94 nM | relative IC50 [16, 25]: 1.94 nM | relative IC50 [17, 24]: 17.4 nM | relative IC50 [18, 21]: 0.909 nM | relative IC50 [18, 22]: 4.16 nM | relative IC50 [18, 24]: 0.271 nM | relative IC50 [19, 23]: 0.734 nM | relative IC50 [19, 24]: 1.48 nM | relative IC50 [19, 25]: 3 nM | relative IC50 [20, 22]: 6.75 nM
SMILES: CO[C@H]1C[C@@H]2CC[C@@H](C)[C@@](O)(O2)C(=O)C(=O)N2CCCC[C@H]2C(=O)O[C@H]([C@H](C)C[C@@H]2CC[C@@H](OP(C)(C)=O)[C@H](OC)C2)CC(=O)[C@H](C)/C=C(\C)[C@@H](O)[C@@H](OC)C(=O)[C@H](C)C[C@H](C)/C=C/C=C/C=C/1C [Ridaforolimus]
drug sensitivity score [1, 21]: 10.2 ± 10 DSS | drug sensitivity score [1, 22]: 5.43 ± 0.71 DSS | drug sensitivity score [1, 23]: 4.57 ± 1.2 DSS | drug sensitivity score [1, 24]: 5.03 ± 1.4 DSS | drug sensitivity score [1, 25]: 5.87 ± 0.67 DSS | maximal % inhibition of viability [2, 21]: 35 ± 4.2% | maximal % inhibition of viability [2, 22]: 27.4 ± 2.9% | maximal % inhibition of viability [2, 23]: 34.5 ± 4% | maximal % inhibition of viability [2, 24]: 27.5 ± 2.6% | maximal % inhibition of viability [2, 25]: 41 ± 1.9% | maximal % inhibition of viability [3, 21]: 53.4 ± 6.2% | maximal % inhibition of viability [3, 22]: 57.5 ± 6.6% | maximal % inhibition of viability [3, 23]: 54.5 ± 9.4% | maximal % inhibition of viability [3, 24]: 48.6 ± 5.5% | maximal % inhibition of viability [3, 25]: 50.7 ± 12% | maximal % inhibition of viability [4, 21]: 21.4 ± 6.2% | maximal % inhibition of viability [4, 22]: 38.1 ± 5.8% | maximal % inhibition of viability [4, 23]: 26.7 ± 6.1% | maximal % inhibition of viability [4, 24]: 31.1 ± 7.1% | maximal % inhibition of viability [4, 25]: 27.4 ± 3.4% | maximal % inhibition of viability [5, 21]: 30.9 ± 9.3% | maximal % inhibition of viability [5, 22]: 31.5 ± 18% | maximal % inhibition of viability [5, 23]: 34.8 ± 4.5% | maximal % inhibition of viability [5, 25]: 33.4 ± 2.9% | maximal % inhibition of viability [6, 21]: 29.4 ± 6.9% | maximal % inhibition of viability [6, 22]: 39 ± 9.4% | maximal % inhibition of viability [6, 23]: 27 ± 5.7% | maximal % inhibition of viability [6, 24]: 27.4 ± 1.4% | maximal % inhibition of viability [6, 25]: 22.4 ± 1.4% | maximal % inhibition of viability [7, 21]: 29.5 ± 6.2% | maximal % inhibition of viability [7, 22]: 42.7 ± 5% | maximal % inhibition of viability [7, 23]: 33.3 ± 2.6% | maximal % inhibition of viability [7, 24]: 37.1 ± 6.1% | maximal % inhibition of viability [7, 25]: 35.8 ± 5% | maximal % inhibition of viability [8, 21]: 16.8 ± 7.8% | maximal % inhibition of viability [8, 23]: 14.9 ± 2.2% | maximal % inhibition of viability [8, 24]: 14.2 ± 3.1% | maximal % inhibition of viability [8, 25]: 14.5 ± 1.9% | maximal % inhibition of viability [9, 21]: 32.8 ± 14% | maximal % inhibition of viability [9, 22]: 44.1 ± 8.6% | maximal % inhibition of viability [9, 23]: 39.2 ± 2.1% | maximal % inhibition of viability [9, 24]: 36.9 ± 4.2% | maximal % inhibition of viability [9, 25]: 33.7 ± 6.2% | maximal % inhibition of viability [10, 21]: 38.7 ± 16% | maximal % inhibition of viability [10, 22]: 42.4 ± 11% | maximal % inhibition of viability [10, 23]: 30.6 ± 3.4% | maximal % inhibition of viability [10, 24]: 40.2 ± 1.8% | maximal % inhibition of viability [10, 25]: 31.5 ± 4.3% | maximal % inhibition of viability [11, 21]: 50 ± 11% | maximal % inhibition of viability [11, 22]: 64 ± 9.1% | maximal % inhibition of viability [11, 23]: 43.9 ± 1.1% | maximal % inhibition of viability [11, 24]: 54.6 ± 4.2% | maximal % inhibition of viability [11, 25]: 48.4 ± 5.3% | maximal % inhibition of viability [12, 21]: 45 ± 7% | maximal % inhibition of viability [12, 22]: 33.2 ± 7.1% | maximal % inhibition of viability [12, 23]: 38.4 ± 1.7% | maximal % inhibition of viability [12, 24]: 49.2 ± 8.1% | maximal % inhibition of viability [12, 25]: 46.9 ± 5.1%
